Laboratory results taken from patent publication US11091501B2, “Heterocyclic compounds as RSV inhibitors” (Enanta Pharmaceuticals, Inc., priority 2017, dated 2021).

tested on: Human RSV-A (“Long” strain); assay: RSV in vitro cytoprotection assay (CPE, ATPlite) in HEp-2 cells; type: cell-based; details: human respiratory syncytial virus, 96 h; HEp-2 cells, 4-day incubation, ATPlite readout; read-out: Human RSV-A (“Long” strain) EC50
Procedure, shortened: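 HEp-2 cells (8,000/well) given 2-fold serial compound dilutions in duplicate, then infected with sucrose-stabilised RSV-A Long stock. After 4 days, cell viability read by ATPlite luminescence, with a parallel uninfected plate for cytotoxicity. EC50 binned A<0.01 μM, B 0.01-0.05 μM, C>0.05 μM.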

EC50 [nM] | Compound
10 to 50 | Cc1ccc(NC(=O)c2sc3c(c2F)CCN(C(=O)c2ccc(NC(=O)c4cc(C)cnc4N4CC5(CCOCC5)C4)cc2)c2ccccc2-3)nc1 [Example 228]
10 to 50 | Cc1cnc(N2CC3(CCOCC3)C2)c(C(=O)Nc2ccc(C(=O)N3CCc4c(sc(C(=O)Nc5cccc(C)n5)c4F)-c4ccccc43)cc2)c1 [Example 229]
< 10 | Cc1cnc(NC(=O)c2sc3c(c2F)CCN(C(=O)c2ccc(NC(=O)c4cc(C)cnc4N4CC5(CCOCC5)C4)cc2)c2ccccc2-3)c(F)c1 [Example 230]
< 10 | Cc1cnc(N2CC3(CCOCC3)C2)c(C(=O)Nc2ccc(C(=O)N3CCc4c(sc(C(=O)Nc5ncccc5C(F)(F)F)c4F)-c4ccccc43)cc2)c1 [Example 231]
> 50 | Cc1cnc(N2CC3(CCOCC3)C2)c(C(=O)Nc2ccc(C(=O)N3CCc4c(sc(C(=O)Nc5cccc(C(F)(F)F)n5)c4F)-c4ccccc43)cc2)c1 [Example 232]
< 10 | O=C(Nc1ccc(C(=O)N2CCc3c(sc(C(=O)Nc4c(F)cccc4F)c3F)-c3ccccc32)cc1)c1cc2c(nc1N1CC3(CCOCC3)C1)CCC2 [Example 233]
< 10 | Cc1cnc(N2CC3(CCOCC3)C2)c(C(=O)Nc2ccc(C(=O)N3CCc4cc(C(=O)Nc5c(F)cccc5F)oc4-c4ccc(F)cc43)cc2)c1 [Example 234]
< 10 | Cc1cnc(N2CC3(CCOCC3)C2)c(C(=O)Nc2ccc(C(=O)N3CCc4cc(C(=O)Nc5c(F)cc(F)cc5Cl)oc4-c4ccc(F)cc43)cc2)c1 [Example 235]
< 10 | Cc1cnc(N2CC3(CCOCC3)C2)c(C(=O)Nc2ccc(C(=O)N3CCc4cc(C(=O)Nc5c(Cl)cccc5Cl)oc4-c4ccc(F)cc43)cc2)c1 [Example 236]
< 10 | Cc1cnc(N2CC3(CCOCC3)C2)c(C(=O)Nc2ccc(C(=O)N3CCc4cc(C(=O)Nc5c(F)cccc5Cl)oc4-c4ccc(F)cc43)cc2)c1 [Example 237]
10 to 50 | O=C(Nc1c(F)cccc1Cl)c1cc2c(o1)-c1ccc(F)cc1N(C(=O)c1ccc(NC(=O)c3cc4c(nc3N3CC5(CCOCC5)C3)CCCC4)cc1)CC2 [Example 238]
< 10 | O=C(Nc1c(F)cccc1F)c1cc2c(o1)-c1ccc(F)cc1N(C(=O)c1ccc(NC(=O)c3cc4c(nc3N3CC5(CCOCC5)C3)CCC4)cc1)CC2 [Example 239]
< 10 | O=C(Nc1c(F)cccc1Cl)c1cc2c(o1)-c1ccc(F)cc1N(C(=O)c1ccc(NC(=O)c3cc4c(nc3N3CC5(CCOCC5)C3)CCC4)cc1)CC2 [Example 240]
< 10 | O=C(Nc1c(F)cccc1F)c1cc2c(o1)-c1ccc(F)cc1N(C(=O)c1ccc(NC(=O)c3cc4c(nc3N3CC5(CCOCC5)C3)CCCC4)cc1)CC2 [Example 241]
< 10 | O=C(Nc1c(Cl)cccc1Cl)c1cc2c(o1)-c1ccc(F)cc1N(C(=O)c1ccc(NC(=O)c3cc4c(nc3N3CC5(CCOCC5)C3)CCCC4)cc1)CC2 [Example 242]
< 10 | Cc1cnc(N2CC3(CCOCC3)C2)c(C(=O)Nc2ccc(C(=O)N3CCc4cc(-c5nc6ccccc6[nH]5)oc4-c4ccc(F)cc43)cc2)c1 [Example 243]
< 10 | O=C(Nc1ccc(C(=O)N2CCc3cc(-c4nc5ccccc5[nH]4)oc3-c3ccc(F)cc32)cc1)c1cc2c(nc1N1CC3(CCOCC3)C1)CCC2 [Example 244]
10 to 50 | O=C(Nc1ccc(C(=O)N2CCc3cc(-c4nc5ccccc5[nH]4)oc3-c3ccc(F)cc32)cc1)c1cc2c(nc1N1CC3(CCOCC3)C1)CCCC2 [Example 245]
< 10 | O=C(Nc1ccccc1)c1cc2c(o1)-c1ccccc1N(C(=O)c1ccc(NC(=O)c3cc4c(nc3N3CC5(CCOCC5)C3)CCC4)cc1)CC2 [Example 246]
< 10 | O=C(Nc1c(F)cccc1F)c1cc2c(o1)-c1ccccc1N(C(=O)c1ccc(NC(=O)c3cc4c(nc3N3CC5(CCOCC5)C3)CCC4)cc1)CC2 [Example 247]
< 10 | O=C(Nc1c(F)cccc1C(F)(F)F)c1cc2c(o1)-c1ccccc1N(C(=O)c1ccc(NC(=O)c3cc4c(nc3N3CC5(CCOCC5)C3)CCC4)cc1)CC2 [Example 248]
< 10 | O=C(Nc1c(F)cccc1Cl)c1cc2c(o1)-c1ccccc1N(C(=O)c1ccc(NC(=O)c3cc4c(nc3N3CC5(CCOCC5)C3)CCC4)cc1)CC2 [Example 249]
< 10 | Cc1cccc(F)c1NC(=O)c1cc2c(o1)-c1ccccc1N(C(=O)c1ccc(NC(=O)c3cc4c(nc3N3CC5(CCOCC5)C3)CCC4)cc1)CC2 [Example 250]
< 10 | O=C(Nc1c(Cl)cccc1Cl)c1cc2c(o1)-c1ccccc1N(C(=O)c1ccc(NC(=O)c3cc4c(nc3N3CC5(CCOCC5)C3)CCC4)cc1)CC2 [Example 251]
< 10 | Cc1cccc(C)c1NC(=O)c1cc2c(o1)-c1ccccc1N(C(=O)c1ccc(NC(=O)c3cc4c(nc3N3CC5(CCOCC5)C3)CCC4)cc1)CC2 [Example 252]
< 10 | O=C(Nc1c(F)cc(F)cc1F)c1cc2c(o1)-c1ccccc1N(C(=O)c1ccc(NC(=O)c3cc4c(nc3N3CC5(CCOCC5)C3)CCC4)cc1)CC2 [Example 253]
< 10 | Cc1ccc(C(=O)Nc2ccc(C(=O)N3CCc4cc(C(=O)Nc5c(F)cccc5F)oc4-c4ccccc43)cc2)c(N2CC3(CCOCC3)C2)n1 [Example 254]

EC50 [nM] | Compound
< 10 | O=C(Nc1ccccc1F)c1cc2c(o1)-c1ccccc1N(C(=O)c1ccc(NC(=O)c3cc4c(nc3N3CC5(CCOCC5)C3)CCC4)cc1)CC2 [Example 255]
< 10 | Cc1ccc(C(=O)Nc2ccc(C(=O)N3CCc4cc(C(=O)Nc5c(C)cccc5F)oc4-c4ccccc43)cc2)c(N2CC3(CCOCC3)C2)n1 [Example 256]
< 10 | Cc1ccc(C(=O)Nc2ccc(C(=O)N3CCc4cc(C(=O)Nc5c(F)cc(F)cc5F)oc4-c4ccccc43)cc2)c(N2CC3(CCOCC3)C2)n1 [Example 257]
< 10 | Cc1ccc(C(=O)Nc2ccc(C(=O)N3CCc4cc(C(=O)Nc5ccccc5F)oc4-c4ccccc43)cc2)c(N2CC3(CCOCC3)C2)n1 [Example 258]
< 10 | Cc1ccc(C(=O)Nc2ccc(C(=O)N3CCc4cc(C(=O)Nc5c(F)cccc5Cl)oc4-c4ccccc43)cc2)c(N2CC3(CCOCC3)C2)n1 [Example 259]
< 10 | O=C(Nc1ccc(C(=O)N2CCc3cc(-c4nc5ccccc5[nH]4)oc3-c3ccccc32)cc1)c1cc2c(nc1N1CC3(CCOCC3)C1)CCC2 [Example 260]
< 10 | Cc1cnc(N2CC3(CCOCC3)C2)c(C(=O)Nc2ccc(C(=O)N3CCc4sc(C(=O)Nc5c(F)cccc5F)cc4-c4ccccc43)cc2)c1 [Example 261]
10 to 50 | Cc1cnc(N2CC3(CCOCC3)C2)c(C(=O)Nc2ccc(C(=O)N3CCc4sc(-c5nc6ccccc6[nH]5)cc4-c4ccccc43)cc2)c1 [Example 262]
10 to 50 | O=C(Nc1c(F)cccc1F)c1cc2c(s1)CCN(C(=O)c1ccc(NC(=O)c3cc4c(nc3N3CC5(CCOCC5)C3)CCC4)cc1)c1ccccc1-2 [Example 263]
10 to 50 | O=C(Nc1ccc(C(=O)N2CCc3sc(-c4nc5ccccc5[nH]4)cc3-c3ccccc32)cc1)c1cc2c(nc1N1CC3(CCOCC3)C1)CCC2 [Example 264]
> 50 | Cc1ccc(C(=O)Nc2ccc(C(=O)N3CCc4sc(C(=O)Nc5c(F)cccc5F)cc4-c4ccccc43)cc2)c(N2CC3(CCOCC3)C2)n1 [Example 265]
< 10 | Cc1ccc(C(=O)Nc2ccc(C(=O)N3CCc4sc(-c5nc6ccccc6[nH]5)cc4-c4ccccc43)cc2)c(N2CC3(CCOCC3)C2)n1 [Example 266]
< 10 | Cc1cnc(N2CC3(CCOCC3)C2)c(C(=O)Nc2ccc(C(=O)N3CCc4c(sc(C(=O)Nc5c(F)cccc5F)c4Cl)-c4ccccc43)cc2)c1 [Example 267]
< 10 | Cc1cnc(N2CC3(CCOCC3)C2)c(C(=O)Nc2ccc(C(=O)N3CCc4c(sc(C(=O)Nc5c(C)cccc5F)c4Cl)-c4ccccc43)cc2)c1 [Example 268]
10 to 50 | Cc1cnc(N2CC3(CCOCC3)C2)c(C(=O)Nc2ccc(C(=O)N3CCc4c(sc(C(=O)Nc5ccccc5Cl)c4Cl)-c4ccccc43)cc2)c1 [Example 269]
< 10 | Cc1cnc(N2CC3(CCOCC3)C2)c(C(=O)Nc2ccc(C(=O)N3CCc4c(sc(C(=O)Nc5ccccc5F)c4Cl)-c4ccccc43)cc2)c1 [Example 270]
10 to 50 | Cc1cnc(N2CC3(CCOCC3)C2)c(C(=O)Nc2ccc(C(=O)N3CCc4c(sc(C(=O)Nc5c(C)cccc5C)c4Cl)-c4ccccc43)cc2)c1 [Example 271]
< 10 | Cc1cnc(N2CC3(CCOCC3)C2)c(C(=O)Nc2ccc(C(=O)N3CCc4c(sc(-c5nc6ccccc6[nH]5)c4Cl)-c4ccccc43)cc2)c1 [Example 272]
10 to 50 | Cc1cnc(N2CC3(CCOCC3)C2)c(C(=O)Nc2ccc(C(=O)N3CCc4c(sc(-c5nc6ccccc6[nH]5)c4C)-c4ccccc43)cc2)c1 [Example 273]
< 10 | Cc1cnc(N2CC3(CCOCC3)C2)c(C(=O)Nc2ccc(C(=O)N3CCc4c(sc(C(=O)Nc5c(F)cccc5F)c4C)-c4ccccc43)cc2)c1 [Example 274]
< 10 | Cc1cnc(N2CC3(CCOCC3)C2)c(C(=O)Nc2ccc(C(=O)N3CCc4cc(NC(=O)c5c(F)cccc5F)sc4-c4ccccc43)cc2)c1 [Example 275]
10 to 50 | Cc1ccc(C(=O)Nc2ccc(C(=O)N3CCc4cc(C(=O)Nc5c(C)cccc5F)sc4-c4ccccc43)cc2)c(N2CC3(CCOCC3)C2)n1 [Example 276]
10 to 50 | Cc1ccc(C(=O)Nc2ccc(C(=O)N3CCc4cc(NC(=O)c5c(F)cccc5Cl)sc4-c4ccccc43)cc2)c(N2CC3(CCOCC3)C2)n1 [Example 277]
< 10 | Cc1ccc(C(=O)Nc2ccc(C(=O)N3CCc4cc(NC(=O)c5ncccc5F)sc4-c4ccccc43)cc2)c(N2CC3(CCOCC3)C2)n1 [Example 278]
10 to 50 | Cc1cnc(N2CC3(CCOCC3)C2)c(C(=O)Nc2ccc(C(=O)N3CCc4cc(NC(=O)c5c(C)cccc5F)sc4-c4ccccc43)cc2)c1 [Example 281]
< 10 | Cc1cnc(N2CC3(CCOCC3)C2)c(C(=O)Nc2ccc(C(=O)N3CCc4cc(NC(=O)c5c(F)cccc5Cl)sc4-c4ccccc43)cc2)c1 [Example 282]
< 10 | Cc1cnc(N2CC3(CCOCC3)C2)c(C(=O)Nc2ccc(C(=O)N3CCc4cc(NC(=O)c5ncccc5F)sc4-c4ccccc43)cc2)c1 [Example 283]
